The values that follow come from ChEMBL document CHEMBL1152100, “Enzymatic synthesis of sialyl Lex and derivatives based on a recombinant fucosyltransferase” (Bioorg Med Chem Lett, 1991).

The target of the first assay is T1, Alpha-(1,3)-fucosyltransferase 10 (Homo sapiens) (UniProt Q6P4F1).
T1 sequence (whole entry): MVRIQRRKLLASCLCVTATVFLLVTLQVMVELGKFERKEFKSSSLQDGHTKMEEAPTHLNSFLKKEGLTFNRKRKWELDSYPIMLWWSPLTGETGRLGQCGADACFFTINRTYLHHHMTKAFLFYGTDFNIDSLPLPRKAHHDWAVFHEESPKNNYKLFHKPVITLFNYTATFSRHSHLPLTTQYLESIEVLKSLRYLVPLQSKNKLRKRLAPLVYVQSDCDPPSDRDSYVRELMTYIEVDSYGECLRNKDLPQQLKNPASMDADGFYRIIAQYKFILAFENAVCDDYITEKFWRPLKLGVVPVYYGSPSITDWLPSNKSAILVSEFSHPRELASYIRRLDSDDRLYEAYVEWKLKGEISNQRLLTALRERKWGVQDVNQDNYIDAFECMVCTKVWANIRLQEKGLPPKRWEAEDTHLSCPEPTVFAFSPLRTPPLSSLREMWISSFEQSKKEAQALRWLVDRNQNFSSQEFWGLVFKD
The assay can be described thus: Compound was evaluated for acceptor substrate specificity toward Fucosyltransferase for the galactosides of GlcNAc with beta 1,3 or beta 1,4-linkages when applied 2 uM of GDP-Fuc consumed per hr.
For the molecule `CC(=O)N[C@@H]1[C@@H](O)[C@H](O[C@@H]2O[C@H](CO)[C@H](O)[C@H](O)[C@H]2O)[C@@H](CO)O[C@H]1O`, the Relative activity stood at 100.

A further assay concerns the target Alpha-(1,3)-fucosyltransferase 10 (Homo sapiens) (UniProt Q6P4F1). The assay can be described thus: (§1) Acceptor substrate specificity toward Fucosyltransferase for the galactosides of GlcNAc with beta 1,3 or beta 1,4-linkages.
For the molecule LACTOSE, ANHYDROUS, the Relative activity amounted to 120.

The next assay deals with T1, Alpha-(1,3)-fucosyltransferase 10 (Homo sapiens). The description is as §1.
As for `O=C[C@H](O)[C@@H](O)[C@@H](O)[C@H](O)CO`, the Relative activity amounted to 6.
On the same count and under the same terms, the same measure for `OC[C@H]1OC(O)[C@H](O)[C@@H](O)[C@@H]1O` (stereo not given in full): 5.
Same read-out and setting: the same measure for `OC[C@H]1OC=C[C@@H](O)[C@H]1O`: 2; for `OC[C@H]1S[C@H](O)[C@H](O)[C@@H](O)[C@@H]1O`: 7.
On the same count and under the same terms, the same measure for `OC[C@H]1NC[C@H](O)[C@@H](O)[C@@H]1O`: 5; for `C[C@@H]1O[C@@H](O[C@@H]2[C@H](O[C@H]3[C@H](O)[C@H](O)[C@@H](O)O[C@H]3CO)O[C@@H](CO)[C@H](O)[C@@H]2O)[C@@H](O)[C@@H](O)[C@@H]1O`: 250; for `OC[C@@H]1OC(O)[C@@H](O)[C@H](O)[C@H]1O` (stereo not given in full): 3.
With `CC(=O)N[C@@H]1[C@H](OC[C@@H]2O[C@@H](O[C@H]3[C@H](O)[C@H](O)C(O)O[C@H]3CO)[C@@H](O)[C@@H](O)[C@H]2O)O[C@@H](CO)[C@@H](O)[C@@H]1O` (stereo not given in full), the Relative activity came out at 13.
On the same count and under the same terms, the same measure for `OC[C@H]1OC=C[C@@H](O)[C@@H]1O`: 7; for `CC(=O)N[C@H]1[C@H]([C@H](O)[C@H](O)CO)O[C@@](O[C@@H]2[C@H](O)[C@H](O[C@H]3[C@H](O)[C@H](NC(C)=O)C(O)O[C@H]3CO)O[C@@H](CO)[C@@H]2O)(C(=O)O)C[C@H]1O` (stereo not given in full): 60; for `CC(=O)N[C@@H]1[C@H](O[C@H]2[C@H](O)[C@H](NC(C)=O)C(O)O[C@H]2CO)O[C@@H](CO)[C@@H](O)[C@@H]1O` (stereo not given in full): 23.
Same read-out and setting: the same measure for `CC(=O)N[C@H]1C(O)O[C@H](CO)[C@@H](O)[C@@H]1O` (stereo not given in full): 3; for `OC[C@@H]1O[C@@H](O[C@H]2[C@H](O)[C@H](O)[C@H](O)S[C@H]2CO)[C@@H](O)[C@@H](O)[C@H]1O`: 310.
The molecule `CC(=O)N[C@H]1C(O)O[C@H](CO)[C@H](O)[C@@H]1O` (stereo not given in full) had a Relative activity of 4.
`CC(=O)N[C@H]1[C@@H](O[C@@H]2O[C@@H](CO)[C@H](O)[C@H](O)[C@@H]2O)[C@H](O)[C@H](CO)O[C@H]1O` had a Relative activity of 580.
The same measure, in the same setting: under `C=CCO[C@@H]1O[C@@H](CO)[C@@H](O)[C@H](O)[C@@H]1O` stands less than 1.
Turning to `CC(=O)N[C@@H]1[C@@H](O)[C@H](O[C@@H]2O[C@H](CO)[C@H](O)[C@H](O)[C@H]2O)[C@@H](CO)O[C@H]1O`, the Relative activity came to 27.
In the case of `OC[C@@H]1OC(O)[C@@H](O)[C@H](O)[C@@H]1O` (stereo not given in full), the Relative activity turned out to be 7.
